These are literature values, as cited in patent US20170209579A1, “NON-INVASIVE RADIOFREQUENCY FIELD TREATMENT FOR CANCER THERAPY” (Baylor College of Medicine, priority 2014, published 2017).

The data set deals with tumor. The settings on record: Monsky et al.; cited from earlier work.

On to `COc1cccc2c1C(=O)c1c(O)c3c(c(O)c1C2=O)C[C@@](O)(C(=O)CO)C[C@@H]3O[C@H]1C[C@H](N)[C@H](O)[C@H](C)O1` [free doxorubicin], for which the “accumulation and retention in the tumor after conventional RFA” value was “not”.
